According to patent publication US12539337B2 (priority 2013, dated 2026):
“Also recorded” adds a separate entry of the source.

Columns and labels:
NMDARs = type: cell-based, rat; details: memantine alone; read-out: IC50 for blocking NMDARs
Method: Primary cerebrocortical cultures were made from E16 rat pups and grown on 12-mm glass coverslips. Briefly, cortices were dissected from 1 to 2 days old rats and enzymatically treated (papain, 200 U/ml; 30 minutes, 37° C.). After mechanical dissociation in minimum essential medium (MEM; Gibco; Grand Island, NY, USA), the cells were plated into culture flasks and grown at 37° C. in a humidified 5% CO2/95% air atmosphere.
Whole-cell voltage-clamp recordings were performed from neurons after 14 days in vitro. The extracellular solution contained: 135 mM NaCl, 2.5 mM KCl, 2 mM CaCl2, 0-0.01 mM MgCl2, 1 mM NaHCO3, 0.34 mM Na2HPO4, 0.44 mM KH2PO4, 20 mM glucose, 10 mM Hepes, pH 7.4. Patch electrodes with a final tip resistance of 4-7 MΩ, were filled with a solution containing (in mM): 120 mM CsCl, 20 mM tetraethylammonium chloride (TEA-Cl), 10 mM Hepes, 2.25 mM EGTA, 1 mM CaCl2, 2 mM MgCl2, 0.001 mM and phalloidin, pH 7.4. pCLAMP 10 software (Molecular Devices; Sunnyvale, CA, USA) was used for data acquisition and analysis. All recordings were performed using an Axopatch 200B amplifier (Molecular Devices; Sunnyvale, CA, USA) at room temperature with a holding potential of −70 mV. […]
To evaluate their pharmacological profile, the effects of Au-Mem on NMDAR-mediated currents were evaluated in cerebrocortical neurons using patch-clamp whole-cell recordings. […]

sNMDARs = assay: Whole-cell patch-clamp recordings of spontaneous NMDAR-mediated sEPSCs in cerebrocortical neurons; type: cell-based, rat; details: free memantine at 10 μM
Method: Whole-cell voltage-clamp recordings were performed from neurons after 14 days in vitro. […] All recordings were performed using an Axopatch 200B amplifier (Molecular Devices; Sunnyvale, CA, USA) at room temperature with a holding potential of −70 mV. Currents were digitally sampled at 10-20 kHz and filtered at 2-5 kHz.
Currents were acquired using a Digidata 1322 interface and pClamp 10.1 software. All recordings were made at room temperature at a holding potential of −70 mV. The extracellular solution contained the following: 137 mM NaCl, 1 mM NaHCO3, 0.34 mM Na2HPO4, 5.36 mM KCl, 0.44 mM KH2PO4, 3 mM CaCl2, 5 mM HEPES, 22.2 mM glucose, 0.01 mM glycine, and 0.003 mM strychnine, pH adjusted to 7.2. […]
The spontaneous NMDAR-mediated sEPSCs are usually presented as bursts, with each burst consisting of multiple EPSCs. […] Then, the values for charge transfer of each NMDAR-mediated sEPSC starting from the peak of the first NMDAR-mediated sEPSC and continuing to the baseline were determined, which took about 2 seconds in the majority of analyzed sEPSCs. […] Additionally, the frequency and amplitude of NMDAR-mediated sEPSCs were calculated for each experimental condition during about 100 seconds of recording time. The mean amplitude was calculated by averaging the amplitude of the maximal NMDA-mediated current in each burst. […]

In the case of CC12CC3CC(C)(C1)CC(N)(C3)C2 [memantine, 3,5-dimethyladamantan-1-amine], the IC50 (NMDARs) is reported as about 1000 nM and the “effect on synaptic activity (sEPSCs)” value (sNMDARs) is reported as “almost completely inhibit; also recorded: did block it”.
